Where “and” joins values, the source holds several entries; their conditions need not be identical. Equal entries are not always repeated.
Legend:
[1] = system: striped bass (M. saxatilis) larvae; assay: Whole larva cortisol (RIA) in high-salinity stress; type: in vivo, Morone saxatilis; settings: for Body Cortisol at 30 min: 30 min high-salinity stress
Procedure: (§1) A group of 30 larvae was promptly transferred from the 10-liter bucket and immediately divided into three 1-liter beakers (ten larvae in each beaker) containing 25-ppt NaCl in dechlorinated fresh water. These hypersaline exposure conditions were established following preliminary tests in which approximately 50% of the larvae survived after 30 minutes exposure. Larval survival at 0, 15 and 30 minutes was recorded, and five larvae at each time interval were quickly removed and sacrificed on dry ice. Samples were washed with chilled distilled water, dried on paper towel, placed into test tubes and lyophilized to constant weight. The dry weight of each hypersaline-exposed larva was recorded to the nearest 0.1 mg. Samples were kept at −80° C. for subsequent whole larva cortisol analysis.
Cortisol was measured on whole larva using a solid-phase radioimmunoassay (RIA) Coat-A-Count Cortisol kit (DPC, Los Angeles, Calif.) following the manufacturer's procedure. Whole body cortisol was extracted from lyophilized larvae with ethyl ether (Barry et al. 1995). Extraction efficiency was determined by adding 1000 dpm 1,2,6,7-^3H-cortisol to each larva sample (specific activity −67.0 Ci mmol^−1, Amersham, Piscataway, N.J.). Cortisol extracts were reconstituted in 150 μl RIA buffer (included in the cortisol RIA kit). Cortisol concentration was then determined in 100-μl aliquots. Spiking recovery was measured in unknown samples using three spiking dilutions (1, 3, 7 ng, Cortisol Immulite, DPC, Los Angeles, Calif.). […] Two additional 20-μl aliquots were taken to determine ^3H-cortisol recovery.

[2] = system: white bass, Morone chrysops larvae; assay: White bass larvae feeding (22 days) on enriched Artemia: growth, survival, total lipid; type: in vivo
Procedure: Larvae rearing. Newly hatched white bass, Morone chrysops larvae were obtained from AquaFutures Inc. (Turners Falls, Mass.). Larvae were grown for 17 days on rotifers, Bracionus plicatilis (2-5 rotifers/ml), which had been cultured on fresh water Chlorella (Martek BioSci. Inc. Columbia, Md.) paste (0.5 g/10^6 rotiferes/day). Larvae were randomly distributed in eighteen 60-liter larval rearing tanks at an initial density of 160 larvae per tank. The tanks were gently aerated and the water volume exchanged 1-2 times per day with biofiltered, U.V treated recirculating water. A 14:10 h light:dark photoperiod was maintained using fluorescent light tubes (Daylight; 40 watts; 800-1200 lux at the water surface). Temperature was maintained at 242° C. and salinity at 2-6 psu. Water quality was monitored daily and levels of total NH3, unionized NH3, NO2 and pH were maintained below 0.2 ppm, 0.001 ppm, 0.3 ppm and at 8.02, respectively. […]
Larvae were then fed twice daily with previously enriched Artemia nauplii, as described above, at a concentration of 50-100 nauplii/liter for the next 22 days.
[…] The dry weight of each larva was recorded to the nearest […] Nettler UMT2, Toledo, Switzerland). […] Survivorship was determined based on the initial and final count of larvae in each rearing tank.

[3] = system: striped bass (M. saxatilis) larvae; assay: Salinity stress test, larval survival; type: in vivo, Morone saxatilis; settings: for Survival (%) at 30 min: 30 min high-salinity stress (25 psu)
Procedure: as §1

[4] = system: striped bass (M. saxatilis) larvae; assay: Striped bass larvae feeding experiment (day 24-46) on Artemia enriched with DHA/AA emulsions: growth, survivorship; type: in vivo, Morone saxatilis; settings: day 46
Procedure: Newly hatched striped bass (M. saxatilis) larvae were obtained from the Aquaculture Research Center (ARC) of the Center of Marine Biotechnology (COMB), University of Maryland. Larvae were raised for 17 days post hatching on rotifers, Bracionus plicatilis (2-5 rotifers ml^−1), which were grown separately on fresh-water Chlorella sp. paste (0.5 g/10^6 rotifers/day, obtained from Martek BioSci. Inc. Columbia, Md.).
Seventeen days post-hatched larvae were randomly distributed in eighteen 60-liter rearing tanks at an initial density of 160 larvae per tank. The rearing tanks were gently aerated and the water volume exchanged 1-2 times per day with biofiltered, UV treated recirculating water. A 14:10 h light:dark photoperiod cycle was maintained using fluorescent lights (Daylight; 40 watts; 800-1200 lux at the water surface). Temperature was maintained at 24±2° C. and salinity at 2-6 psu. Water quality was monitored daily, and levels of total NH3, unionized N-3, NO2 and pH were maintained below 0.2 ppm, 0.001 ppm, 0.3 ppm and at 8.02, respectively, by partial replacement with fresh water.
Newly hatched Artemia nauplii were introduced to the larvae from day 17 until day 24 (once a day at 20-40 nauplii 1^−1), while rotifer concentration was reduced gradually to a complete removal by day 24.
Larvae then were fed twice daily with Artemia nauplii, enriched with nine dietary emulsions containing varying proportions of DHA and AA.
A 3×3 factorial design with two nutritional factors (DHA and AA) at three levels each and in duplicate blocks was used. This experimental design allowed for the simultaneous study of the effect of increasing dietary levels of DHA and AA either alone or in various combination of both fatty acids. Nine different emulsions having varying proportions of DHA-rich triacylglycerols from heterotrophically grown algae, Crypthecodinium spp. (0, 11.1 and 21.6 mg g^−1 lipids) and AA-rich triacylglycerols (3, 14.5 and 24.8 mg g^−1 lipids) from fungi, Mortierella spp. (DHASCO and ARASCO, Martek BioSci. Columbia, Md.) were formulated.
A mixture of 2% alginic acid, 2% polyoxyethylene sorbitan mono-oleate (Tween-80), 1% ascorbic acid, 1% vitamin-E, 1% silicon based anti-foaming agent (all mad e by Sigma Co. MO) and 5% soy lecithin (80% phosphatidylcholine, Archer Daniels Midland Co., Decatur, Ill.) were added to the oils (all additions made by weight). […]
Feeding experiments were terminated on day 46. […] Survivorship was determined based on the initial and final count of larvae in each rearing tank. […]

[5] = system: Gilthead sea bream, Sparus aurata larvae; assay: Gilthead sea bream larvae fed enriched rotifers and Artemia; type: in vivo; settings: 5 to 34-day-old sea bream larvae; DHA enriched vs no DHA containing rotifers and Artemia
Procedure: Gilthead sea bream, Sparus aurata and European sea bass, Dicentrarchus labrax larvae originated from spawns of locally maintained broodstock were stocked over three days with two-day-old larvae (40,000 larvae tank^−1). Sea bream larvae from day 3 to day 20 were fed twice daily rotifers that were previously enriched on first phototrophically grown Nannochloropsis sp. and then on either Algamac-2000 or PL-Cr. Rotifer and Artemia enrichments and larval feeding were carried out as described in Koven et al. 2001. Sea bream larval growth and survival as a function of enrichment materials was recorded on day 34. European sea bass larvae were maintained in darkness until day-8 when they started feeding on non-enriched Artemia nauplii until day 11. From day-11 to day-21, the larvae were fed twice daily under low illumination (approximately 100-lux) Algamac-2000 or PL-Cr enriched Artemia nauplii.
Total lipids were extracted from triplicate samples. Lipid weight was determined gravimetrically (Mettler UMT2 ±0.1 mg, Toledo, Switzerland) and expressed as percent DW of sample. Fatty acid methyl esters (FAME) were prepared from the whole lipid extract, and the lipid classes separated, saponified and transmethylated as described by Harel et al. (2000).

[6] = dietary DHA 0.0 mg g^−1 D.W, pooled over AA levels

Compound: CCCCC/C=C\C/C=C\C/C=C\C/C=C\CCCC(=O)O [AA, arachidonic acid]
- Body Cortisol at 0 min ([1]; dietary AA 3.0 mg g^−1 D.W): 106 ± 10^B pg mg^−1 D.W
- Body Cortisol at 30 min ([1]; dietary AA 3.0 mg g^−1 D.W): 171 ± 18^A pg mg^−1 D.W
- Body Cortisol at 0 min ([1]; dietary AA 14.5 mg g^−1 D.W): 142 ± 15^A pg mg^−1 D.W
- Body Cortisol at 30 min ([1]; dietary AA 14.5 mg g^−1 D.W): 192 ± 27^A pg mg^−1 D.W
- Body Cortisol at 0 min ([1]; dietary AA 24.8 mg g^−1 D.W): 122 ± 10^AB pg mg^−1 D.W
- Body Cortisol at 30 min ([1]; dietary AA 24.8 mg g^−1 D.W): 167 ± 20^A pg mg^−1 D.W
- Increase in basal cortisol levels ([1]; increasing dietary AA from 3 to 14.5 mg AA g^−1 lipids): ~40%
- Larval growth (weight) ([2]; 25.4% AA of enrichment total fatty acids, 11.1% DHA): 13.1±1.5 mg dry weight
- Larval growth (weight) ([2]; no dietary AA, 11.1% DHA of total fatty acids in enrichment lipids): 21.3±1.8 mg dry weight
- Mortality after 30 min of exposure ([3]; 3 mg g^−1 lipids dietary AA (AA deficient larvae), 25-psu): over 80%
- Survival (%) at 30 min ([3]; dietary AA 3.0 mg g^−1 D.W, pooled over DHA levels): 19.5 ± 1.8^B %
- Survival (%) at 30 min ([3]; dietary AA 14.5 mg g^−1 D.W): 61.8±4.2% and 61.8 ± 4.2^A %
- Survival (%) at 30 min ([3]; dietary AA 24.8 mg g^−1 D.W): 48.7 ± 5.0^A %
- Larval weight ([4]; 3-mg AA g^−1 lipids): 19.4 mg dry weight
- Larval weight ([4]; 14.5-mg AA g^−1 lipids): 23.7 mg dry weight

Compound: CC/C=C\C/C=C\C/C=C\C/C=C\C/C=C\C/C=C\CCC(=O)O [DHA, docosahexaenoic acid]
- Body Cortisol at 0 min [1, 6]: 123 ± 8^A pg mg^−1 D.W
- Body Cortisol at 30 min ([1]; dietary DHA 0.0 mg g^−1 D.W): 155 ± 16^B pg mg^−1 D.W
- Body Cortisol at 0 min ([1]; dietary DHA 11.1 mg g^−1 D.W): 128 ± 16^A pg mg^−1 D.W
- Body Cortisol at 30 min ([1]; dietary DHA 11.1 mg g^−1 D.W): 182 ± 22^AB pg mg^−1 D.W
- Body Cortisol at 0 min ([1]; dietary DHA 21.6 mg g^−1 D.W): 118 ± 11^A pg mg^−1 D.W
- Body Cortisol at 30 min ([1]; dietary DHA 21.6 mg g^−1 D.W): 193 ± 26^A pg mg^−1 D.W
- Improvement of larval growth [5]: ≤ 40%
- Survival (%) at 30 min [3, 6]: 30.7 ± 4.9^B %
- Survival (%) at 30 min ([3]; dietary DHA 11.1 mg g^−1 D.W): 48.3 ± 7.2^AB %
- Survival (%) at 30 min ([3]; dietary DHA 21.6 mg g^−1 D.W): 50.99 ± 5.8^A %
- Larval weight (mean) ([4]; 21.6-mg DHA g^−1 lipids): 20.4 mg dry weight
- Larval weight (mean) ([4]; zero dietary DHA): 22.7 mg dry weight
